From patent US7491794B2, “Macrocyclic compounds as inhibitors of viral replication” (Intermune, Inc., priority 2003, dated 2009)

Assays:
[1] = system: HCV sub-genomic replicon, GS4.3; experiment: Quantitation by ELISA of NPTII in the HCV sub-genomic replicon, GS4.3, Section C; type: cell-based; conditions: Hepatitis C virus; GS4.3 cells, 72 h incubation; read-out: EC50
Excerpt: Quantitation by ELISA of the selectable marker protein, Neomycin phosphotransferase II (NPTII) in the HCV Sub-Genomic Replicon, GS4.3
The HCV sub-genomic replicon (1377/NS3-3′, accession No. AJ242652), stably maintained in HuH-7 hepatoma cells, was created by Lohmann et al. Science 285: 110-113 (1999). The replicon-containing cell culture, designated GS4.3, was obtained from Dr. Christoph Seeger of the Institute for Cancer Research, Fox Chase Cancer Center, Philadelphia, Pa.
GS4.3 cells were maintained at 37° C., 5% CO2, in DMEM (Gibco 11965-092) supplemented with L-glutamine 200 mM (100×) (Gibco25030-081), non-essential amino acids (NEAA)(Biowhittaker 13-114E), heat-inactivated (HI) Fetal Bovine Serum(FBS)(Hyclone SH3007.03) and 750 μg/ml geneticin (G418)(Gibco 10131-035). Cells were sub-divided 1:3 or 4 every 2-3 days.
24 h prior to the assay, GS4.3 cells were collected, counted, and plated in 96-well plates (Costar 3585) at 7500 cells/well in 100 μl standard maintenance medium (above) and incubated in the conditions above. To initiate the assay, culture medium was removed, cells were washed once with PBS (Gibco 10010-023) and 90 μl Assay Medium (DMEM, L-glutamine, NEAA, 10% HI FBS, no G418) was added. Inhibitors were made as a 10× stock in Assay Medium, (3-fold dilutions from 10 μM to […] final concentration, final DMSO concentration 1%), 10 μl were added to duplicate wells, plates were rocked to mix, and incubated as above for 72 h.
An NPTII Elisa kit was obtained from AGDIA, Inc. (Compound direct ELISA test system for Neomycin Phosphotransferase II, PSP 73000/4800). Manufacturer's instructions were followed, with some modifications. 10×PEB-1 lysis buffer was made up to include 500 μM PMSF (Sigma P7626, 50 mM stock in isopropanol). After 72 h incubation, cells were washed once with PBS and 150 μl PEB-1 with PMSF was added per well. Plates were agitated vigorously for 15 minutes, room temperature, then frozen at −70° C. Plates were thawed, lysates were mixed thoroughly, and 100 μl were applied to an NPTII Elisa plate. A standard curve was made. Lysate from DMSO-treated control cells was pooled, serially diluted with PEB-1 with PMSF, and applied to duplicate wells of the ELISA plate, in a range of initial lysate amount of 150u1-2.5 ul. In addition, 100 μl buffer alone was applied in duplicate as a blank. Plates were sealed and gently agitated at room temperature for 2 h. Following capture incubation, the plates were washed 5×300 μl with PBS-T (0.5% Tween-20, PBS-T was supplied in the ELISA kit). For detection, a 1× dilution of enzyme conjugate diluent MRS-2 (5×) was made in PBS-T, into which 1:100 dilutions of enzyme conjugates A and B were added, as per instructions. Plates were resealed, and incubated with agitation, covered, room temperature, for 2 h. The washing was then repeated and 100 μl of room temperature TMB substrate was added. After approximately 30 minutes incubation (room temperature, agitation, covered), the reaction was stopped with 50 μl 3M sulfuric acid. Plates were read at 450 nm on a Molecular Devices Versamax plate reader.
Inhibitor effect was expressed as a percentage of DMSO-treated control signal, and inhibition curves were calculated using a 4-parameter equation: y=A+((B−A)/(1+((C/x)^D))), where C is half-maximal activity or EC50.

NS3-NS4 protease = target: T1, NS3-NS4 protease (Hepatitis C virus genotype 1a, UniProt P27958); experiment: NS3-NS4 protease assay / NS3 inhibition assay, Section C; type: biochemical; conditions: read-out: NS3-NS4 IC50
T1 construct: Recombinant E. coli or Baculovirus full-length NS3 was diluted to 3.33 μM with assay buffer; made in house; host or cells: E. coli or baculovirus (BV) system
Description: NS3 complex formation with NS4A-2.
Recombinant E. coli or Baculovirus full-length NS3 was diluted to 3.33 μM with assay buffer and transfered material to an eppendorf tube and place in water bath in 4° C. refrigerator. The appropriate amount of NS4A-2 to 8.3 mM in assay buffer was added to equal the volume of NS3 in step 2.1.1 (conversion factor −3.8 mg/272 μL assay buffer). The material was transferred to an eppendorf tube and place in water bath in 4° C. refrigerator.
After equilibration to 4° C., equal volumes of NS3 and NS4A-2 solutions were combined in an eppendorf tube, mix gently with a manual pipettor, and incubate mixture for 15 minutes in the 4° C. water bath. Final concentrations in the mixture are […] NS3, 4.15 mM NS4A-2 (2485-fold molar excess NS4A-2).
After 15 minutes at 4° C., the NS3/NS4A-2 eppendorf tube was removed and place it in a room temperature water bath for 10 minutes. NS3/NS4A-2 was alliquoted at appropriate volumes and store at −80° C. (E. coli NS3 run at 2 nM in assay, aliquot at 25 μL. BV NS3 run at 3 nM in assay, aliquot at 30 μL).
Step 2.2.5. Sample compounds were dissolved to 10 mM in DMSO then diluted to 2.5 mM (1:4) in DMSO.
Step 2.2.6. The E. coli. NS3/NS4A-2 was diluted to 4 nM NS3 (1:417.5 of […] stock−18 μL 1.67 μM stock+7497 μL assay buffer). The BV NS3/NS4A-2 was diluted to 6 nM NS3 (1:278.3 of 1.67 μM stock−24 μL 1.67 μM stock+6655 μL assay buffer).
Step 2.2.7. Using the manual multichannel pipettor, and being careful not to introduce bubbles into the plate, 50 μL assay buffer were added to wells A01-H01 of a black Costar 96-well polypropylene storage plate.
Step 2.2.8. Using the manual multichannel pipettor, and being careful not to introduce bubbles into the plate, 50 μL of diluted NS3/NS4A-2 from step 2.2.6 were added to wells A02-H12 of plate in step 2.2.7.
Step 2.2.9. Using the manual multichannel pipettor, and being careful not to introduce bubbles into the plate, 25 μL of the wells in drug dilution plate in step 2.2.5 were transferred to corresponding wells in assay plate in step 2.2.8. The tips on multichannel pipettor were changed for each row of compounds transferred.
Step 2.2.10. Using the manual multichannel pipettor, and being careful not to introduce bubbles into the plate, the contents of the wells from the assay plate in step 2.2.9 were mixed by aspirating and dispensing 35 μL of the 75 μL in each well five times. The tips on the multichannel pipettor were changed for each row of wells mixed.
Step 2.2.11. The plate was covered with a polystyrene plate lid, and the plate from step 2.2.10 containing NS3 protease and sample compounds was pre-incubated 10 minutes at room temperature.
While the plate from step 2.2.11 was pre-incubating, the RETS1 substrate was diluted in a 15 mL polypropylene centrifuge tube. The RETS1 substrate was diluted to 8 μM (1:80.75 of 646 μM stock−65 μL 646 μM stock+5184 μL assay buffer).
After the plate in step 2.2.11 was done pre-incubating, and using the manual multichannel, 25 μL of substrate were added to all wells on the plate. The contents of the wells of plate were quickly mixed, as in step 2.2.10, but mixing 65 μL of the 100 μL in the wells.
The plate was read in kinetic mode on the Molecular Devices SpectraMax Gemini XS plate reader. Reader settings: Read time: 30 minutes, Interval: 36 seconds, Reads: 51, Excitation λ: 335 nm, Emission λ: 495 nm, cutoff: 475 nm, Automix: off, Calibrate: once, PMT: high, Reads/well: 6, Vmax pts: 21 or 28/51 depending on length of linearity of reaction.
IC50s were determined using a four parameter curve fit equation, and converted to Ki's using the following Km's:
where Ki=IC50/(1+[S]/Km))

T1 sequence (P27958 1027-1657): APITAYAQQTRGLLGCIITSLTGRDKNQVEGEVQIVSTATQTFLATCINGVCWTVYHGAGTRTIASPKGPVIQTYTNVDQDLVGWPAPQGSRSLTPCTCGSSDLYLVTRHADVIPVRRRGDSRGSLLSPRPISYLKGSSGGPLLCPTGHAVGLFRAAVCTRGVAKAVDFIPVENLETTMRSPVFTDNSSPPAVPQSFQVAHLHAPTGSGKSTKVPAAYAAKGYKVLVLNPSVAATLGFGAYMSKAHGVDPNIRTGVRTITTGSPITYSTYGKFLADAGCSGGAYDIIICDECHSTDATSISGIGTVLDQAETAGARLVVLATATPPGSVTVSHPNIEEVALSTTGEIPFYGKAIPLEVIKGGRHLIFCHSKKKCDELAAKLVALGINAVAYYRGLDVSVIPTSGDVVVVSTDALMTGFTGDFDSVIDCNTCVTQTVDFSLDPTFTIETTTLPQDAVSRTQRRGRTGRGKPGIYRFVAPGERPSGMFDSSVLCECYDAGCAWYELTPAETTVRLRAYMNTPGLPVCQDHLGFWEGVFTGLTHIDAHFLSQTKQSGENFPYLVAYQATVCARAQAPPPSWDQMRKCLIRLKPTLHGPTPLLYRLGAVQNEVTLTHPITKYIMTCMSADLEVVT

Compound: CC(C)(C)OC(=O)N[C@H]1CCCCC/C=C\[C@@H]2C[C@@]2(C(=O)NS(=O)(=O)NC2CCCCC2)NC(=O)[C@@H]2C[C@@H](OC(=O)N3Cc4ccccc4C3)CN2C1=O [Compound 135, (1S,4R,6S,14S,18R)-1,3-Dihydro-isoindole-2-carboxylic acid 14-tert-butoxycarbonylamino-4-(cyclohexylaminosulfonyl-aminocarbonyl)-2,15-dioxo-3,16-diaza-tricyclo[14.3.0.0^4,6]nonadec-7-en-18-yl ester]
- EC50 [1]: < 100 nM
- IC50 (NS3-NS4 protease): < 100 nM

Compound: CC(C)(C)OC(=O)N[C@H]1CCCCC/C=C\[C@@H]2C[C@@]2(C(=O)NS(=O)(=O)N(CCC#N)C2CC2)NC(=O)[C@@H]2C[C@@H](OC(=O)N3Cc4ccccc4C3)CN2C1=O [Compound 125, (1S,4R,6S,14S,18R)-1,3-Dihydro-isoindole-2-carboxylic acid 14-tert-butoxycarbonylamino-4-(2-cyanoethyl(cyclopropyl)aminosulfonyl-aminocarbonyl)-2,15-dioxo-3,16-diaza-tricyclo[14.3.0.0^4,6]nonadec-7-en-18-yl ester]
- EC50 [1]: < 100 nM
- IC50 (NS3-NS4 protease): < 100 nM

Compound: CC(C)(C)OC(=O)N[C@H]1CCCCC/C=C\[C@@H]2C[C@@]2(C(=O)NS(=O)(=O)N2CCCC2)NC(=O)C2C[C@@H](OC(=O)NC(CN3CCOCC3)c3ccccc3)CN2C1=O (stereo partly drawn) [Compound 112, (1S,4R,6S,14S,18R)-(2-Morpholin-4-yl-1-phenyl-ethyl)-carbamic acid 14-tert-butoxycarbonylamino-2,15-dioxo-4-(pyrrolidine-1-sulfonylaminocarbonyl)-3,16-diaza-tricyclo[14.3.0.0^4,6]nonadec-7-en-18-yl ester]
- IC50 (NS3-NS4 protease): < 100 nM

Compound: CC(C)(C)OC(=O)N[C@H]1CCCCC/C=C\[C@@H]2C[C@@]2(C(=O)NS(=O)(=O)N2CCCC2)NC(=O)C2C[C@@H](OC(=O)N3CCc4ccccc4C3CN3CCOCC3)CN2C1=O (stereo partly drawn) [Compound 111, (1S,4R,6S,14S,18R)-1-Morpholine-4-ylmethyl-3,4-dihydro-1H-isoquinoline-2-carboxylic acid 14-tert-butoxycarbonylamino-2,15-dioxo-4-(pyrrolidine-1-sulfonylaminocarbonyl)-3,16-diaza-tricyclo[14.3.0.0^4,6]nonadec-7-en-18-yl ester]
- IC50 (NS3-NS4 protease): < 100 nM

Compound: CC(C)(C)OC(=O)N[C@H]1CCCCC/C=C\[C@@H]2C[C@@]2(C(=O)NS(=O)(=O)Nc2nccs2)NC(=O)[C@@H]2C[C@@H](OC(=O)N3Cc4ccccc4C3)CN2C1=O [Compound 105, (1S,4R,6S,14S,18R)-1,3-Dihydro-isoindole-2-carboxylic acid 14-tert-butoxycarbonylamino-4-(thiazol-2-ylaminosulfonylaminocarbonyl)-2,15-dioxo-3,16-diaza-tricyclo[14.3.0.0^4,6]nonadec-7-en-18-yl ester]
- IC50 (NS3-NS4 protease): < 100 nM

Compound: CC(C)(C)OC(=O)N[C@H]1CCCCC/C=C\[C@@H]2C[C@@]2(C(=O)NS(=O)(=O)N2CCOCC2)NC(=O)[C@@H]2C[C@@H](OC(=O)N3CCc4ccccc4C3CN3CCCCC3)CN2C1=O (stereo partly drawn) [Compound 110, (1S,4R,6S,14S,18R)-1-Piperidin-1-ylmethyl-3,4-dihydro-1H-isoquinoline-2-carboxylic acid 14-tert-butoxycarbonylamino-2,15-dioxo-4-(morpholino-sulfonylaminocarbonyl)-3,16-diaza-tricyclo[14.3.0.0^4,6]nonadec-7-en-18-yl ester]
- IC50 (NS3-NS4 protease): < 1000 nM

Compound: CC(C)(C)OC(=O)N[C@H]1CCCCC/C=C\[C@@H]2C[C@@]2(C(=O)NS(=O)(=O)NC2(C#N)CC2)NC(=O)[C@@H]2C[C@@H](OC(=O)N3Cc4ccccc4C3)CN2C1=O [Compound 123, (1S,4R,6S,14S,18R)-1,3-Dihydro-isoindole-2-carboxylic acid 14-tert-butoxycarbonylamino-4-(N-(1-cyanocyclopropyl)aminosulfonyl-aminocarbonyl)-2,15-dioxo-3,16-diaza-tricyclo[14.3.0.0^4,6]nonadec-7-en-18-yl ester]
- IC50 (NS3-NS4 protease): < 100 nM

Compound: CC(C)(C)OC(=O)N[C@H]1CCCCC/C=C\[C@@H]2C[C@@]2(C(=O)NS(=O)(=O)N2CCNCC2)NC(=O)[C@@H]2C[C@@H](OC(=O)N3Cc4ccccc4C3)CN2C1=O [Compound 120, (1S,4R,6S,14S,18R)-1,3-Dihydro-isoindole-2-carboxylic acid 14-tert-butoxycarbonylamino-4-(piperazine-1-sulfonyl-aminocarbonyl)-2,15-dioxo-3,16-diaza-tricyclo[14.3.0.0^4,6]nonadec-7-en-18-yl ester]
- IC50 (NS3-NS4 protease): < 100 nM
